# From publication PMC12077194, “Structural basis for spermidine recognition and modulation of Acinetobacter baumannii multidrug efflux regulator AmvR” (mBio, 2025)
# pKd: −log10 of the molar value.
# Key:
# [1] = target: T1, AmvR (Acinetobacter baumannii, UniProt A0A7U3Y8S7); experiment: Isothermal titration calorimetry of polyamines with apo AmvR wild-type; type: binding; settings: ITC, 20°C, read-out: equilibrium dissociation constant (Kd)
# T1 sequence (A0A7U3Y8S7 4-192): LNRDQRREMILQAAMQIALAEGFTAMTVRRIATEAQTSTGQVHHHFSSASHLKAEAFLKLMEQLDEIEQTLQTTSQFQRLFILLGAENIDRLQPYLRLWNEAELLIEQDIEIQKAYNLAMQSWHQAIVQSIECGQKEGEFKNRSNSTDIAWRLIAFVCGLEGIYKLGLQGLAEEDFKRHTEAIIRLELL
# Description: (§1) The AmvR^WT or mutant proteins were purified with affinity chromatography followed by size-exclusion chromatography and buffer-exchange with buffer D. The polyamines were also dissolved in Buffer D. The ITC experiments were performed at 20°C using a MicroCal PEAQ-ITC (Malvern Panalytical Ltd) using 20 injections of 2 µL or 25 injections of 1.6 µL. A solution of 100 µM AmvR wild-type or mutants was loaded into the cell, whereas a 1 mM solution of polyamines was loaded into the syringe. The measured heat changes of the binding reactions were integrated and analyzed using the standard “one set of sites” model implemented in the Origin software package (OriginLab) to determine the binding stoichiometry (N-value) and the equilibrium dissociation constant (Kd).
# [2] = target: T2, AmvR^E71A (Acinetobacter baumannii, UniProt A0A7U3Y8S7, E71A); experiment: ITC of polyamines with AmvR^E71A mutant; type: binding
# T2 sequence (A0A7U3Y8S7 4-192 E71A): T1 sequence (A0A7U3Y8S7 4-192)
# Description: as §1
# [3] = target: T3, AmvR W102A (Acinetobacter baumannii, UniProt A0A7U3Y8S7, W102A); experiment: ITC of spermidine with AmvR W102A mutant; type: binding
# T3 sequence (A0A7U3Y8S7 4-192 W102A): T1 sequence (A0A7U3Y8S7 4-192)
# Description: as §1
# [4] = target: T4, AmvR W126E (Acinetobacter baumannii, UniProt A0A7U3Y8S7, W126E); experiment: ITC of spermidine with AmvR W126E mutant; type: binding
# T4 sequence (A0A7U3Y8S7 4-192 W126E): T1 sequence (A0A7U3Y8S7 4-192)
# Description: as §1
# [5] = target: T5, AmvR E106A (Acinetobacter baumannii, UniProt A0A7U3Y8S7, E106A); experiment: ITC of spermidine with AmvR E106A mutant; type: binding
# T5 sequence (A0A7U3Y8S7 4-192 E106A): T1 sequence (A0A7U3Y8S7 4-192)
# Description: as §1
# [6] = target: T6, AmvR^E164A (Acinetobacter baumannii, UniProt A0A7U3Y8S7, E164A); experiment: ITC of spermidine with AmvR^E164A mutant; type: binding
# T6 sequence (A0A7U3Y8S7 4-192 E164A): T1 sequence (A0A7U3Y8S7 4-192)
# Description: as §1
# [7] = target: T7, AmvR E65A (Acinetobacter baumannii, UniProt A0A7U3Y8S7, E65A); experiment: ITC of spermidine with AmvR E65A mutant; type: binding
# T7 sequence (A0A7U3Y8S7 4-192 E65A): T1 sequence (A0A7U3Y8S7 4-192)
# Description: as §1
# [8] = target: T8, AmvR L99E (Acinetobacter baumannii, UniProt A0A7U3Y8S7, L99E); experiment: ITC of spermidine with AmvR L99E mutant; type: binding
# T8 sequence (A0A7U3Y8S7 4-192 L99E): T1 sequence (A0A7U3Y8S7 4-192)
# Description: as §1
# [9] = target: T9, AmvR L86A (Acinetobacter baumannii, UniProt A0A7U3Y8S7, L86A); experiment: ITC of spermidine with AmvR L86A mutant; type: binding
# T9 sequence (A0A7U3Y8S7 4-192 L86A): T1 sequence (A0A7U3Y8S7 4-192)
# Description: as §1
# [10] = target: T10, AmvR^L99Q (Acinetobacter baumannii, UniProt A0A7U3Y8S7, L99Q); experiment: ITC of spermidine with AmvR^L99Q mutant; type: binding
# T10 sequence (A0A7U3Y8S7 4-192 L99Q): T1 sequence (A0A7U3Y8S7 4-192)
# Description: as §1
# [11] = target: T11, AmvR N103A (Acinetobacter baumannii, UniProt A0A7U3Y8S7, N103A); experiment: ITC of spermidine with AmvR N103A mutant; type: binding
# T11 sequence (A0A7U3Y8S7 4-192 N103A): T1 sequence (A0A7U3Y8S7 4-192)
# Description: as §1
# [12] = target: AmvR (a.a. 4-192) from Acinetobacter baumannii, wild type (Acinetobacter baumannii); experiment: SEC; Superdex 75 Increase 10/300 GL, buffer F (200 mM NaCl, 20 mM Tris pH 8.0, 5 mM DTT), compared with gel filtration standards; AmvR^WT also with 2x and 10x spermidine
compound,measurement,setting,value
NCCCCCN [cadaverine],pKd,[1],5.23
same,pKd,[2],4.16
NCCCCN [putrescine],pKd,[1],5.02
NCCCCNCCCN [spermidine],KD,[3],completely eliminated spermidine binding
same,pKd,[4],5.12
same,pKd,[1],6.14
same,pKd,[5],5.15
same,KD,[6],eliminated spermidine binding
same,pKd,[2],4.39
same,pKd,[7],6.02
same,pKd,[8],5.24
same,pKd,[9],5.21
same,pKd,[10],6.12
same,pKd,[11],5.91
NCCCNCCCCNCCCN [spermine],pKd,[1],5.67
same,pKd,[2],4.05
"AmvR (a.a. 4-192) from Acinetobacter baumannii, wild type (natural protein)",stoichiometry N,[12],2
